# Reference: publication PMC3050021 (Cancer cell, 2010)
# Entries after “also recorded” stand apart in the source; their conditions may differ. Residues, ends and D or L forms follow the SMILES beside them. *: point of attachment. Cbz = O=C(OCc1ccccc1)*
# Key:
# HDM2 = conditions: ref Vassilev et al., 2004; cited from earlier work
# [1] = system: p53-HDMX complex (JEG-3 cells); assay: Anti-HDMX immunoprecipitation, p53 western, JEG-3; format: cell-based, human
# [2] = ref Vassilev et al., 2004; cited from earlier work
# [3] = system: osteosarcoma murine xenograft; conditions: ref Vassilev et al., 2004; cited from earlier work
# [4] = system: p53-HDMX complex (MCF-7 cells); assay: Anti-HDMX immunoprecipitation, p53 western, MCF-7; format: cell-based; conditions: Nutlin-3 20 µM alone or with 5 or 20 µM SAH-p53-8, 10 µM MG-132, 6 h, Figure 7A
# HCT116 cells = assay: Cell viability HCT116; format: cell-based; conditions: 0.3–20 µM, 24 h, CellTiter-Glo; HDM2- and HDMX-expressing colon cancer; Figure 3A–E
# [5] = system: WS1 normal human fibroblasts; assay: Cell viability WS1 normal fibroblasts; conditions: 0.3–20 µM, 24 h, CellTiter-Glo; Figure 3I
# SJSA-1 cells = assay: Cell viability SJSA-1; format: cell-based; conditions: 0.3–20 µM, 24 h, CellTiter-Glo; HDM2-overexpressing osteosarcoma; Figure 3A
# [6] = system: caspase-3/7 (JEG-3 cells); assay: Caspase-3/7 activation, JEG-3; format: cell-based, human; conditions: 0.3–10 µM, 12 h, Caspase-3/7-Glo, Figure 5B
# MCF-7 cells [7] = conditions: ref Wade et al., 2008; cited from earlier work
# p53 (JEG-3 cells) = assay: p53 western analysis, JEG-3; format: cell-based, human; conditions: 20 µM, 6 h, Figure 4A
# SJSA-X cells [8] = assay: Combination / synergy study, SJSA-X; format: cell-based; conditions: SJSA-X (induced HDMX expression in isogenic SJSA-1), 0.5–20 µM; Figure 7G
# JEG-3 cells = assay: Cell viability JEG-3; format: cell-based, human; conditions: 0.3–20 µM, 24 h, CellTiter-Glo; HDMX-overexpressing choriocarcinoma; Figure 3C
# A431 cells (R273H p53) = assay: Cell viability A431; format: cell-based; conditions: 0.3–20 µM, 24 h, CellTiter-Glo; R273H p53 mutation
# [9] = system: HCT116 cells deficient in p53; assay: Cell viability HCT116 deficient in p53; format: cell-based; conditions: 0.3–20 µM, 24 h, CellTiter-Glo; genetic deletion of p53; Figure 3F, 3G
# SJSA-X cells [10] = assay: Cell viability SJSA-X; format: cell-based; conditions: 0.3–20 µM, 24 h, CellTiter-Glo; overexpresses HDM2 and HDMX; Figure 3B
# MCF-7 cells [11] = assay: Cell viability MCF-7; format: cell-based; conditions: 0.3–20 µM, 24 h, CellTiter-Glo; HDM2- and HDMX-expressing breast cancer; Figure 3A–E
# p53 (MCF-7 cells) = assay: p53 western analysis, MCF-7; conditions: Nutlin-3 20 µM, 10 µM MG-132, 6 h, Figure 7A
Structure (SMILES),inhibition of HDM2 (HDM2),"p53-HDMX complex ([1]; 20 µM, 6 h, anti-HDMX IP, Figure 4A)",cell cycle arrest and apoptosis [2],anti-tumor efficacy [3],p53-HDMX complex [4],cell viability HCT116 (HCT116 cells),viability of normal human fibroblasts WS1 [5],cell viability SJSA-1 (SJSA-1 cells),caspase-3/7 activation [6],sensitivity of MCF-7 to Nutlin-3 (MCF-7 cells [7]),p53 levels (p53 (JEG-3 cells)),single-agent effect in synergy study (SJSA-X cells [8]),cell viability JEG-3 (JEG-3 cells),cell viability A431 (A431 cells (R273H p53)),cell viability HCT116 deficient in p53 [9],cell viability SJSA-X (SJSA-X cells [10]),cell viability MCF-7 (MCF-7 cells [11]),p53 levels (p53 (MCF-7 cells)),"p53-HDMX complex in the presence of MG-132 ([1]; 0–20 µM SAH-p53-8 with 10 µM MG-132, 6 h, Figure 4B)"
COc1ccc(C2=N[C@@H](c3ccc(Cl)cc3)[C@@H](c3ccc(Cl)cc3)N2C(=O)N2CCNC(=O)C2)c(OC(C)C)c1 [Nutlin-3],inhibits HDM2,"p53-HDMX complexes were preserved, if not increased",triggers cell cycle arrest and apoptosis,exhibits anti-tumor efficacy,appearance of the inhibitory p53-HDMX complex,modestly sensitive,no impact on the viability of normal human fibroblasts,very sensitive; also recorded: more cytotoxic than SAH-p53-8 in SJSA-1 cells,little effect,only modestly sensitive,an increase in p53 levels was observed,ineffective as a single agent,little to no response; also recorded: most resistant to Nutlin-3,similarly unaffected,completely insensitive,little to no response,modestly sensitive,can elevate p53 levels in MCF-7 cells,
CC(C)C[C@@H](C=O)NC(=O)[C@H](CC(C)C)NC(=O)[C@H](CC(C)C)NC(=O)OCc1ccccc1 [MG-132] (Cbz-Leu-Leu-Leu-aldehyde),,,,,,,,,,,,,,,,,,,increased p53-HDMX complex
